In patent US11214803B2, “Modulators of YAP1 expression” (Ionis Pharmaceuticals, Inc., priority 2019, dated 2022):
Strand notation (5' to 3'): a small letter for the sugar, then the base; units joined by * are phosphorothioate-linked, units joined directly phosphodiester-linked; [ ] holds rarer units or linkages, { } end groups; capitals alone tell only the bases. e = 2'-O-(2-methoxyethyl) (MOE); k = constrained ethyl (cEt); [5mC] = 5-methylcytosine; d = 2'-deoxy (DNA); m = 2'-O-methyl

Test system: Yap1 mRNA
Experiment: Antisense inhibition of human Yap1 in SNU-449 cells by modified oligonucleotides, single dose (Example 5, RTS36584)
Type: cell-based
Method in brief: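 Values are % of untreated control: Yap1 mRNA by quantitative RT-PCR (RTS36584), normalized to RIBOGREEN total RNA. Oligonucleotides were dosed at 2,000 nM, free uptake, in SNU-449 cells, with roughly 48 h exposure before RNA isolation.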

[1] = Table 41, SNU-449 cells, 10,000 cells per well, free uptake, 2,000 nM modified oligonucleotide, approximately 48 hours, RTS36584, normalized to RIBOGREEN, Yap1 mRNA relative to untreated control cells
[2] = Table 51, Yap1 mRNA remaining as percent of untreated control (UT), SNU-449 cells, single dose
[3] = Table 44 experiment, SNU-449 cells, 10,000 cells per well, free uptake, 2,000 nM, approximately 48 hours, RTS36584, Yap1 mRNA normalized to RIBOGREEN, relative to untreated control cells
[4] = Yap1 mRNA, percent of untreated control, modified oligonucleotides targeting SEQ ID NO: 1 and 2, Table 47
[5] = Table 49, Yap1 mRNA level relative to untreated control, modified oligonucleotides targeting SEQ ID NO.: 1 and 2
[6] = Table 42 (separate experiment), SNU-449 cells, 10,000 cells per well, free uptake, 2,000 nM modified oligonucleotide, approximately 48 hours, RTS36584, normalized to RIBOGREEN, Yap1 mRNA relative to untreated control cells
[7] = Table 43 experiment, SNU-449 cells, 10,000 cells per well, free uptake, 2,000 nM, approximately 48 hours, RTS36584, Yap1 mRNA normalized to RIBOGREEN, relative to untreated control cells
[8] = Table 48, Yap1 mRNA level relative to untreated control, modified oligonucleotides targeting SEQ ID NO.: 1 and 2

1198692 (antisense kT*kG*dT*dA*dA*dT*dA*dT*dT*dG*d[5mC]*dA*kA*eT*k[5mC]*eT) [Compound 1198692]
YAP1 (% UTC) [1]: 120 % UTC

1197250 (antisense kT*kT*kG*dG*mA*dA*dG*dA*dT*d[5mC]*dT*dG*dA*kA*kA*k[5mC]) [Compound 1197250]
YAP1 (% UT) [2]: 60 % UT

1200828 (kA*kT*kA*dG*dT*mG*d[5mC]*dT*dT*dT*dG*dG*dA*kA*kG*kA; antisense) [Compound 1200828]
YAP1 (% UT) (Table 52, Yap1 mRNA, modified oligonucleotides targeting SEQ ID NO: 1 and 2): 54 % UT

1198527 (kA*kA*dA*dG*dT*dG*dT*dA*dT*dG*dT*e[5mC]*kA*eG*kA*eA; antisense) [Compound 1198527]
YAP1 (% UTC) [3]: 5 % UTC

1198947 (k[5mC]*kA*dA*d[5mC]*dT*d[5mC]*dT*dT*dA*dT*dA*kT*dG*kG*dT*kT; antisense) [Compound 1198947]
YAP1 (% UTC) (Table 45, Yap1 mRNA as percent of untreated control, SNU-449 cells, single dose): 88 % UTC

1198873 (kA*kG*dT*dG*dT*dA*dT*dG*dT*d[5mC]*dA*kG*eA*kA*eG*kA; antisense) [Compound 1198873]
YAP1 (% UT) [4]: 4 % UT

1198576 (antisense kT*kT*kT*dG*dG*dA*dA*dG*dA*dT*d[5mC]*dT*kG*kA*kA*eA) [Compound 1198576]
YAP1 (% UT) [5]: 92 % UT

1198202 (kG*kA*dA*dA*dT*dT*dG*dT*d[5mC]*dT*d[5mC]*eA*eT*eG*k[5mC]*k[5mC]; antisense) [Compound 1198202]
YAP1 (% UTC) [6]: 14 % UTC

1095575 (antisense kA*k[5mC]*dT*dG*dA*dG*dG*dT*dA*dT*dA*eA*e[5mC]*eT*kG*kG) [Compound 1095575]
YAP1 (% UTC) [7]: 55 % UTC

1198789 (antisense kA*eA*kA*dG*dT*dG*dT*dA*dT*dG*dT*d[5mC]*eA*eG*kA*kA) [Compound 1198789]
YAP1 (% UTC) [1]: 22 % UTC

1198327 (kT*kT*kT*dA*dG*dG*dA*dT*dG*d[5mC]*dA*dT*kG*eG*kT*eT; antisense) [Compound 1198327]
YAP1 (% UT) [8]: 29 % UT

1198582 (antisense kA*kT*kA*dG*dT*dG*d[5mC]*dT*dT*dT*dG*dG*kA*kA*kG*eA) [Compound 1198582]
YAP1 (% UT) [5]: 63 % UT

1197310 (kT*kA*kT*dG*mU*dA*dA*dT*dA*dT*dT*dG*d[5mC]*kA*kA*kT; antisense) [Compound 1197310]
YAP1 (% UT) [2]: 109 % UT

1198678 (antisense kA*kT*dA*dT*dG*dG*dT*dT*dT*dT*dG*dT*kG*eT*kG*eT) [Compound 1198678]
YAP1 (% UTC) [6]: 58 % UTC

1200786 (kA*kA*kT*dT*dG*mU*d[5mC]*dT*d[5mC]*dA*dT*dG*d[5mC]*k[5mC]*kT*kT; antisense) [Compound 1200786]
YAP1 (% UT) [2]: 21 % UT

1197197 (antisense kT*k[5mC]*kA*dG*dA*dT*dT*dT*dA*dG*dG*dA*dT*kG*k[5mC]*kA) [Compound 1197197]
YAP1 (% UT) [4]: 20 % UT

1198533 (kT*kA*dA*dG*dG*dT*dT*dT*d[5mC]*d[5mC]*d[5mC]*eA*kG*eA*kT*eT; antisense) [Compound 1198533]
YAP1 (% UTC) [3]: 35 % UTC

1198321 (kT*kG*k[5mC]*dT*dT*dT*dG*dG*dA*dA*dG*dA*kT*e[5mC]*kT*eG; antisense) [Compound 1198321]
YAP1 (% UT) [8]: 45 % UT

1198211 (kA*kT*dT*dA*dG*dA*dG*dT*dA*dT*dG*eT*eG*eG*k[5mC]*kA; antisense) [Compound 1198211]
YAP1 (% UTC) [6]: 19 % UTC

1198203 (kG*kG*dA*dA*dA*dT*dT*dG*dT*d[5mC]*dT*e[5mC]*eA*eT*kG*k[5mC]; antisense) [Compound 1198203]
YAP1 (% UTC) [6]: 19 % UTC

1198217 (kG*kG*dT*dA*dT*dA*dA*d[5mC]*dT*dG*dG*eG*e[5mC]*eA*kA*kA; antisense) [Compound 1198217]
YAP1 (% UTC) [7]: 57 % UTC

1074463 (kT*kA*kG*dA*dG*dT*dA*dT*dG*dT*dG*dG*d[5mC]*kA*kA*kT; antisense) [Compound 1074463]
YAP1 (% UT) [4]: 20 % UT

1198286 (kA*kA*kT*dT*dG*dT*d[5mC]*dT*d[5mC]*dA*dT*dG*k[5mC]*e[5mC]*kT*eT; antisense) [Compound 1198286]
YAP1 (% UT) [8]: 17 % UT
